Patent publication EP1800684A1, “Novel alkyl phospholipid derivatives and uses thereof” (Zentaris GmbH, priority 2005, dated 2007)
In brackets after ≈: the same amount, converted by molar mass.

Key:
Format in all cases: cell-based
[1] = tested on: RKOp21 (human colon adenocarcinoma) cells; test: XTT cytotoxicity assay, RKOp21 cells; conditions: 48 h, 2 days of continuous drug exposure
Experimental: (§1) Human tumor cell lines KB/HeLa (ATCC CCL17, human cervix carcinoma), PC3 (ATCC CRL1435, human prostate carcinoma) and RKOp21 (human colon adenocarcinoma) cells were used in an automated XTT screening assay for the assessment of cytotoxicity.
(§2) The XTT assay quantifies cellular metabolic activity which correlates with cell viability and cell number. Test compounds (selected compounds of the invention and known substances as controls) are dissolved in culture medium at 600µM and added to the tumor cells in 10 different concentrations in a semi-logarithmic fashion starting from 100 µM as highest concentration.
(§3) 48h later cellular metabolic activity of cells treated with test compounds is quantified by measurement of the absorbance at 490nm (conversion of XTT dye) in comparison to untreated control cells (100% viability).
(§4) KB/HeLa and PC3 cells were cultivated in RPMI medium supplemented with 10% heat inactivated fetal calf serum, 2 mM glutamine, 100 U/ml penicillin, and 100 µg/ml streptomycin. RKOp21 cells were grown in DMEM supplemented with 10% heat inactivated fetal calf serum, 2 mM glutamine, 100 U/ml penicillin, and 100 µg/ml streptomycin. All cells were cultured at 37°C in 5% CO2 humidified air.
(§5) On the first day of the experiment cells were harvested from exponential phase cultures by trypsination, counted and plated into 96 well flat-bottom micro titer plates depending on the cell line as listed below:
(§6) After a 24h recovery to allow the cells to resume exponential growth, the test compounds were diluted immediately prior to use and transferred in 25µl volume to the wells.
(§7) Following 2 days of continuous drug exposure 50µl of freshly prepared XTT-PMS solution (2% […] PMS in PBS + 98% 1 mg/ml XTT in RPMI 1640 without phenol red) was added to the wells. To measure the proportion of living cells, the cells were incubated for 3 h with XTT-PMS reagent at 37°C, 5% CO2, humidified atmosphere allowing to form the formazan salt. The amount of soluble formazan salt produced by cellular reduction of XTT is quantified by measuring the absorbance at 490nm using the Biomek® 2000 ELISA plate reader.
(§8) %-inhibition (cytotoxicity) of each test compound was calculated in relation to untreated control cells. Inhibition curves were generated and IC50 values calculated by using GraphPad Prism.

[2] = tested on: KB/HeLa (ATCC CCL17, human cervix carcinoma); test: XTT cytotoxicity assay, KB/HeLa cells; conditions: 48 h, 2 days of continuous drug exposure
Experimental: as §1, §2, §3, §4, §5, §6, §7, §8

[3] = tested on: Candida albicans (ATCC 10231); test: Anti-fungal susceptibility test (microdilution), fungus A; conditions: Candida albicans, ATCC10231, no visible growth after 48 hours at 35° C, read-out: MIC
Experimental: (§9) The antifungal activities of the test compounds (compounds of the invention and known prior art compounds) were measured according to standard microdilution methods (Cryptococcus/Aspergillus: Ghannoum et al., Journal of Clinical Microbiology 1992, 30 (11): 2881-2886; Candida: Reference method for broth dilution susceptibility testing of yeast: proposed standard, NCCLS document M27-P, National Committee for Clinical Laboratory Standards 1992, Villanova, Pa).
(§10) A serial dilution series starting from 64 µg/mL test compound per well down to 0.125 µg/mL test compound per well was applied for each test compound on each fungus. The MIC of each compound was defined as the concentration which produces no visible growth after 48 hours (Candida) and 72 hours (Cryptococcus, Aspergillus) of culture at 35° C.
(§11) The following fungi were assessed: • A) Candida albicans (ATCC 10231) • B) Candida albicans (ATCC 90028) • C) Candida albicans (strain TS3, Shrikantha et al., Journal of Bacteriology 2000, 182(6):1580-1591) • D) Candida parapsilosis (ATCC 22019) • E) Cryptocoocus neoformans (ATCC 90112) • F) Cryptocoocus neoformans (strain H99; Ganendren et al., Antimicrobial Agents and Chemotherapy, 2004, 48(5):1561-1569) • G) Cryptocoocus gattii (ATCC 32608) • H) Aspergillus fumigatus (ATCC 204305) • I) Aspergillus fumigatus (strain 322-384)

[4] = tested on: Candida albicans (ATCC 90028); test: Anti-fungal susceptibility test (microdilution), fungus B; conditions: Candida albicans, ATCC90028, no visible growth after 48 hours at 35° C, read-out: MIC
Experimental: as §9, §10, §11

[5] = tested on: Candida albicans (strain TS3); test: Anti-fungal susceptibility test (microdilution), fungus C; conditions: Candida albicans, no visible growth after 48 hours at 35° C, read-out: MIC
Experimental: as §9, §10, §11

[6] = tested on: Candida parapsilosis (ATCC 22019); test: Anti-fungal susceptibility test (microdilution), fungus D; conditions: ATCC22019, no visible growth after 48 hours at 35° C, read-out: MIC
Experimental: as §9, §10, §11

[7] = tested on: Aspergillus fumigatus (ATCC 204305); test: Anti-fungal susceptibility test (microdilution), fungus H; conditions: Aspergillus fumigatus, ATCC204305, no visible growth after 72 hours at 35° C, read-out: MIC
Experimental: as §9, §10, §11

[8] = tested on: Trypanosoma cruzi (Tulahuan-LACZ amstigotes in PEM); test: In vitro drug activity assay, protozoon A (amastigotes in murine peritoneal macrophages, CPRG readout); conditions: infected macrophages exposed for 3 days
Experimental: Murine (CD1) peritoneal macrophages were harvested 24 hours after starch induction and dispensed into 96-well plates at a concentration of 4 x 10^5 mL. After 24 hours, the cells were infected with Trypanosoma cruzi Tulahuan LAC-Z amastigotes (grown and cultured according to Buckner et al., Infection and Immunity 1999, 67(1): 403-409). 24 hours later, the infected cells were exposed to the test compounds (compounds of the invention as well as known prior art compounds) for 3 days and 50 µL of 500 µM CPRG-1% Nonidet P-40 was added to each well. The plates were read after 2 to 5 hours at 570 nm (Buckner et al., Antimicrobial Agents and Chemotherapy 1996, 40(11): 2592-2597). ED50 values were calculated with Msxlfit (IDBS).
The following protozoa were assessed: • A) Trypanosoma cruzi (Tulahuan-LACZ amstigotes in PEM, Lorente SO et al., Antimicrobial agents and chemotherapy 2004, 48(8): 2937-2950; Buckner et al., Infection and Immunity 1999, 67(1): 403-409; Buckner et al., Antimicrobial Agents and Chemotherapy 1996, 40(11): 2592-2597) • B) Trypanosoma brucei rhodesiense (strain STIB900, Lorente SO et al., Antimicrobial agents and chemotherapy 2004, 48(8): 2937-2950; Habtemariam S, BMC Pharmacology 2003, 3:6) • C) Plasmodium falciparum (strain K1, Korsinczky M et al., Antimicrobial agents and chemotherapy 2000, 44(8): 2100-2108; Thaitong S and Beale GH, Trans. R. Soc. Trop. Med. Hyg. 1981, 75: 271-273; Trager W and Jensen JB, Science 1976, 193: 673-675) • D) Plasmodium falciparum (strain 3D7, Mu et al., PLoS Biology 2005, 3(10): e335)

## CCCCCCCCCCCCCCCCOP(=O)([O-])OCC[N+]1(C)CCCCC1 [Compound 2, Phosphoric acid 2-(1-methyl-piperidin-1-yl)-ethyl ester hexadecyl ester]
[1]
  IC50: 40.9 µM
[2]
  IC50: 5.02 µM
[3]
  MIC: 1 µg/mL (≈ 2.23 µM)
[4]
  MIC: 1 µg/mL (≈ 2.23 µM)
[5]
  MIC: 1.5 µg/mL (≈ 3.35 µM)
[6]
  MIC: 2 µg/mL (≈ 4.47 µM)
[7]
  MIC: 2 µg/mL (≈ 4.47 µM)
[8]
  ED50 (µg/mL): 0,50 µg/mL
